Holding throughout (format): cell-based
In one experiment the test system is IL-21. The experiment can be described thus: Inhibition of cytokine release from PBMCs (HTRF). To be noted: PBMC, human PBMCs, PMA and ionomycin stimulated. The procedure: (§1) The ability of compounds 3507, 3520, 3534 and 3538 to inhibit the release of cytokines TNF-α, IFN-γ, IL-6, IL-21, IL-17A and IL-23 was evaluated in vitro (Tables 4 and 5). Briefly, human peripheral blood mononuclear cells (PBMCs) were isolated from human peripheral blood by Histopaque density gradient centrifugation. The freshly isolated PBMCs were seeded at 50,000 cells/well in a 96-well half area plate. PBMCs were dosed with the test compounds (at 10 μM, 1 μM and 0.1 μM) and then incubated at 37° C. and 5% CO2 for 2 hours. To stimulate release of the cytokines IFN-γ, IL-21, IL-17A and IL-23, the PBMCs were treated with 50 ng/mL of phorbol 12-myristate 13-acetate (PMA) and 1 μg/mL of ionomycin and to stimulate the release of TNF-α and IL-6, PBMCs were treated with 100 ng/mL of lipopolysaccharide (LPS) from gram-negative bacteria. The PBMCs were then incubated at 37° C. and 5% CO2 for a further 6 hours and the cell supernatant was collected and a Homogenous Time Resolved Fluorescence (HTRF) assay was carried out following the manufacturer's instructions. Cytokine release from the PBMCs was captured using a Perkin Elmer ENVISION 2104 microplate reader set at 615 nm and 665 nm respectively.
A general note: TR-FRET usually uses a lanthanide donor and a delayed reading to cut background.

For a further experiment, the system named is IL-6. Kind of experiment: Inhibition of cytokine release from PBMCs (HTRF). Particulars: PBMC, human PBMCs, LPS stimulated. The procedure: as §1
For a further experiment, the system named is IL-17A. Kind of experiment: Inhibition of cytokine release from PBMCs (HTRF). To be noted: PBMC, human PBMCs, PMA and ionomycin stimulated. How it is done:
as §1

A further experiment concerns IL-23. The experiment can be described thus: Inhibition of cytokine release from PBMCs (HTRF). Particulars: PBMC, human PBMCs, PMA and ionomycin stimulated. The procedure:
as §1

A further experiment has as its system IFN-γ. Kind of experiment: Inhibition of cytokine release from PBMCs (HTRF). Particulars: PBMC, human PBMCs, PMA and ionomycin stimulated. How it is done:
as §1

In the next experiment the test system is TNF-α. Kind of experiment: Inhibition of cytokine release from PBMCs (HTRF). To be noted: PBMC, human PBMCs, LPS stimulated. The procedure:
as §1

The next experiment concerns PC3. Kind of experiment: Anti-proliferative activity, cell-titre luminescent viability assay. To be noted: Homo sapiens, read-out: IC50 Prostate PC3. In short, it runs like this: (§2)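 Cells were seeded at pre-determined densities, cultured 24 hours at 37° C/5% CO2, then exposed 72 hours to compound at 0.03, 0.3, 3 and 30 μM or at 0.1, 0.3, 1, 3, 10 and 30 μM. Viability was read by cell-titre luminescence after 30 min, normalized to untreated control, and IC50 or EC50 derived.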

The next experiment has as its system SK-Mel-28. Described as above. Particulars: Homo sapiens, SK-MEL-28, 72 hours, read-out: IC50 Melanoma SK-Mel-28. In short, it runs like this:
as §2

The next experiment has as its system MDA-MB-231. Described as above. Particulars: Homo sapiens, read-out: IC50 Breast MDA-MB-231. In short, it runs like this: as §2
The test system of the next experiment is SK-N-SH. The description is as above. Particulars: Homo sapiens, SK-N-SH, read-out: IC50 Neuroblastoma SK-N-SH. In short, it runs like this:
as §2

The next experiment has as its system DU145. The description is as above. To be noted: Homo sapiens, read-out: IC50 Prostate DU145. In short, it runs like this:
as §2

Another experiment relates to CaCo2. The description is as above. To be noted: Homo sapiens, read-out: IC50 Colorectal CaCo2. In short, it runs like this:
as §2

A further experiment relates to A549. Described as above. To be noted: Homo sapiens, read-out: IC50 Lung (NSLC) A549. In short, it runs like this:
as §2

Where [1] appears, read: PC-3, 72 h, 0.03, 0.3, 3 and 30 μM, linear regression of semi-log plots.
[2] abbreviates: 0.03, 0.3, 3 and 30 μM, linear regression of semi-log plots.
The mark [3] stands for this setting: MDA-MB-231, 72 h, 0.03, 0.3, 3 and 30 μM, linear regression of semi-log plots.
The mark [4] stands for this setting: 72 h, 0.03, 0.3, 3 and 30 μM, linear regression of semi-log plots.
The mark [5] stands for this setting: DU-145, 72 h, 0.03, 0.3, 3 and 30 μM, linear regression of semi-log plots.
Where [6] appears, read: Caco-2, 72 h, 0.03, 0.3, 3 and 30 μM, linear regression of semi-log plots.
The mark [7] stands for this setting: A549, 72 h, 0.03, 0.3, 3 and 30 μM, linear regression of semi-log plots.
Where [8] appears, read: PC-3, 72 h, 0.1, 0.3, 1, 3, 10 and 30 μM, nonlinear regression sigmoidal dose-response (EC50).
The mark [9] stands for this setting: 0.1, 0.3, 1, 3, 10 and 30 μM, nonlinear regression sigmoidal dose-response (EC50).
Setting [10] is: MDA-MB-231, 72 h, 0.1, 0.3, 1, 3, 10 and 30 μM, nonlinear regression sigmoidal dose-response (EC50).
The mark [11] stands for this setting: 72 h, 0.1, 0.3, 1, 3, 10 and 30 μM, nonlinear regression sigmoidal dose-response (EC50).
Setting [12] is: DU-145, 72 h, 0.1, 0.3, 1, 3, 10 and 30 μM, nonlinear regression sigmoidal dose-response (EC50).
Setting [13] is: Caco-2, 72 h, 0.1, 0.3, 1, 3, 10 and 30 μM, nonlinear regression sigmoidal dose-response (EC50).
Where [14] appears, read: A549, 72 h, 0.1, 0.3, 1, 3, 10 and 30 μM, nonlinear regression sigmoidal dose-response (EC50).

Where two headings read alike, the source gives them in different places.

For orientation: inhibition means the change of the read-out against control, counted positive when it falls. As a reminder, the IC50 is the concentration at which inhibition is half-maximal. As for `COc1ccc(CCN2CCN(C(=O)c3ccc(Cc4ccc5c(c4)c(C)c(C)n5CCCN4CCN(C)CC4)cc3)CC2)cc1` [Compound 3520, (4-((2,3-dimethyl-1-(3-(4-methylpiperazin-1-yl)propyl)-1H-indol-5-yl)methyl)phenyl)(4-(4-methoxyphenethyl)piperazin-1-yl)methanone], the inhibition at 0.1 µM in the experiment with IL-21 was -8%; in the experiment on IL-6 it was -10%; with IL-17A, -11%; in the experiment with IL-23 it was -8%; in the experiment on IFN-γ it was 1%; with TNF-α, -8%. The inhibition at 1 µM in the experiment with IL-21 was -13%; with IL-6, -9%; in the experiment with IL-17A, -7%; in the experiment with IL-23, -1%; in the experiment on IFN-γ, 0%; in the experiment on TNF-α it was -10%. For the same compound, the inhibition at 10 µM in the experiment on IL-21 was -12%; in the experiment with IL-6, 3%; with IL-17A, 1%; in the experiment on IL-23, 12%; in the experiment on IFN-γ, 4%; with TNF-α, -14%. Besides, the IC50 in the experiment on PC3 (setting [1]) was 2.3 µM; with SK-Mel-28 (setting [2]) it was 2.5 µM; with MDA-MB-231 (setting [3]), 2.8 µM; in the experiment with SK-N-SH (setting [4]), 2.3 µM; in the experiment on DU145 (setting [5]), 2.7 µM; in the experiment on CaCo2 (setting [6]), 3.5 µM. Also, the IC50 in the experiment with A549 (setting [7]) was determined as 2.4 µM.

In the case of `Cc1c(C)n(CCCN2CCN(C)CC2)c2ccc(Nc3ccc(C(=O)N4CCN(CCc5cccc(F)c5)CC4)cc3)cc12` [Compound 3534, (4-((2,3-dimethyl-1-(3-(4-methylpiperazin-1-yl)propyl)-1H-indol-5-yl)amino)phenyl)(4-(3-fluorophenethyl)piperazin-1-yl)methanone], the inhibition at 0.1 µM with IL-21 was 0%; in the experiment with IL-6 it was 13%; with IL-17A, 1%; in the experiment on IL-23, -5%; with IFN-γ it was 23%; in the experiment on TNF-α, 2%. Also, the inhibition at 1 µM in the experiment with IL-21 is -8%; in the experiment on IL-6, 21%; in the experiment on IL-17A, 1%; in the experiment with IL-23, -1%; in the experiment on IFN-γ, 39%; in the experiment with TNF-α it was 5%. Besides, the inhibition at 10 µM with IL-21 is 11%; in the experiment on IL-6, 48%; with IL-17A it was 12%; in the experiment with IL-23 it was 20%; in the experiment with IFN-γ it was 85%; with TNF-α, -12%. Also, the IC50 in the experiment on PC3 (setting [1]) is 2.8 µM; in the experiment on SK-Mel-28 (setting [2]) it was 1.2 µM; with MDA-MB-231 (setting [3]), 1.6 µM; with SK-N-SH (setting [4]), 1.4 µM; in the experiment with DU145 (setting [5]) it was 1.4 µM; in the experiment on CaCo2 (setting [6]) it was 3.2 µM. Moreover, in the experiment with A549 (setting [7]), the IC50 amounted to 1.5 µM.

In the case of `COc1ccc2cc(CCN3CCN(C(=O)c4cccc(Cc5ccc6c(c5)c(C)c(C)n6CCCN5CCN(C)CC5)c4)CC3)ccc2c1` [Compound 3538, (3-((2,3-dimethyl-1-(3-(4-methylpiperazin-1-yl)propyl)-1H-indol-5-yl)methyl)phenyl)(4-(2-(6-methoxynaphthalen-2-yl)ethyl)piperazin-1-yl)methanone], the inhibition at 0.1 µM is 1% in the experiment with IL-21; -13% with IL-6; 21% in the experiment with IL-17A; -19% in the experiment on IL-23; 24% with IFN-γ; -10% in the experiment on TNF-α. The inhibition at 1 µM is 8% with IL-21; -13% in the experiment on IL-6; 42% in the experiment with IL-17A; -20% in the experiment on IL-23; 58% with IFN-γ; -4% in the experiment on TNF-α. Moreover, the inhibition at 10 µM was 11% in the experiment on IL-21; -10% in the experiment with IL-6; 86% with IL-17A; 30% in the experiment with IL-23; 86% in the experiment with IFN-γ; -7% in the experiment on TNF-α. For the same compound, the IC50 in the experiment on PC3 (setting [8]) came out at 3.9 µM; with SK-Mel-28 (setting [9]), 3.3 µM; in the experiment with MDA-MB-231 (setting [10]), 3.6 µM; with SK-N-SH (setting [11]), 4.8 µM; in the experiment on DU145 (setting [12]), 4.2 µM; in the experiment on CaCo2 (setting [13]) it was 5.7 µM. In the experiment on A549 (setting [14]), the IC50 was found to be 4.3 µM.

`Cc1c(C)n(CCCN2CCN(C)CC2)c2ccc(Cc3ccc(C(=O)N4CCN(CCc5cccc6ccccc56)CC4)cc3)cc12` [Compound 3544, (4-((2,3-dimethyl-1-(3-(4-methylpiperazin-1-yl)propyl)-1H-indol-5-yl)methyl)phenyl)(4-(2-(naphthalen-1-yl)ethyl)piperazin-1-yl)methanone]: the IC50 with PC3 (setting [8]) came to 8.1 µM; with SK-Mel-28 (setting [9]), 7.2 µM; with MDA-MB-231 (setting [10]) it was 8.2 µM; with SK-N-SH (setting [11]), 7 µM; in the experiment with DU145 (setting [12]), 9 µM; with CaCo2 (setting [13]), 13.5 µM. In the experiment with A549 (setting [14]), the IC50 came out at 5.7 µM.

On to `COc1ccc2cccc(CCN3CCN(C(=O)c4ccc(Cc5ccc6c(c5)c(C)c(C)n6CCCN5CCN(C)CC5)cc4)CC3)c2c1` [Compound 3545, (4-((2,3-dimethyl-1-(3-(4-methylpiperazin-1-yl)propyl)-1H-indol-5-yl)methyl)phenyl)(4-(2-(7-methoxynaphthalen-1-yl)ethyl)piperazin-1-yl)methanone], for which the IC50 in the experiment on PC3 (setting [8]) came to 3 µM; in the experiment with SK-Mel-28 (setting [9]), 3.2 µM; in the experiment on MDA-MB-231 (setting [10]) it was 2.3 µM; with SK-N-SH (setting [11]) it was 2.1 µM; with DU145 (setting [12]), 3.6 µM; in the experiment on CaCo2 (setting [13]) it was 3.1 µM. Further, the IC50 in the experiment with A549 (setting [14]) turned out to be 4.2 µM.
